Experimental data published in paper PMC4551797 (PLoS ONE, 2015).

Tests used:
[1] = test system: Tgr5 KO mice; experiment: Three-day study on GLP-1, PYY and bile weight in Tgr5 KO mice; details: 100 mg/kg oral BID 3 days, 30 min after last dose
[2] = test system: HEK-293 cells; experiment: cAMP production in untransfected HEK-293 cells (specificity control); assay type: cell-based; details: Homo sapiens, HEK293, read-out: cAMP production: no elevation up to
Procedure: HEK-293 cells were obtained from ATCC and a clonal HEK-293 line overexpressing mouse TGR5 was prepared. Both were maintained in Dulbecco’s modified Eagle’s medium (DMEM) containing 10% fetal bovine serum (FBS) and penicillin /streptomycin. Mouse STC-1 cells were obtained from ATCC under agreement with the Cold Spring Harbor Laboratories and maintained in DMEM containing 10% FBS and penicillin /streptomycin. NCI-H716 cells were obtained from ATCC and were maintained in RPMI-1640 with 10% FBS. NCI-H716 cells were cultured in 96 well plate coated with Matrigel (BD). After 72 hours, cAMP production stimulated with TGR5 agonists was measured using HTRF cAMP assay kit (CISBIO). The level of cAMP in suspensions of STC-1 cells stimulated with increasing concentrations of TGR5 agonists was also determined. […] The production of GLP-1 was determined using a GLP-1 Assay (7–36) amide kit (Mesoscale Discovery) following the manufacturer’s instructions. […]
Compound 18 is a novel small molecule agonist of TGR5 developed by Eli Lilly and Company (MW = 508.62, Fig 2A). […] In order to determine potency of compound 18 for the mouse and human TGR5 receptor in cells with endogenous levels of receptor, we measured compound 18-stimulated cAMP production and GLP-1 secretion in both mouse (STC-1) and human (NCI-H716) enteroendocrine cell lines, that we have shown to express TGR5 natively (Fig 1). […]

[3] = test system: C57BL/6 mice; experiment: Three-day study on GLP-1 and gallbladder filling (bile weight); assay type: in vivo, mouse
Procedure: C57BL/6 mice, Tgr5 KO mice, or their wild-type littermate controls were orally dosed with vehicle or compounds twice per day for 3 days, with overnight fasting performed on the evening of day 2. On the morning of day 3, animals were dosed orally with compounds and then euthanized by CO2 asphyxiation at 30 minutes after the fifth dose. Plasma was collected for analysis of GLP-1 (X-36) amide as mentioned above, followed immediately by incision into the abdominal cavity to remove and weigh bile from the gallbladder.
On the third day, compound was dosed in the morning followed 30 minutes later by measurement of bile filling (A) by use of a needle and syringe and GLP-1 (x-36) amide (B) by cardiac puncture.

[4] = CEREP mini panel (56 assays: enzymes, receptors, ion channels); details: read-out: IC50s for 56 assays in a CEREP mini panel
[5] = test system: DIO C57BL/6 mice; experiment: Body weight, food intake and body composition in DIO mice over two weeks; assay type: in vivo, mouse; details: 60 mg/kg oral once a day
Procedure: Body composition of mice was determined using Quantitative Nuclear Magnetic Resonance analysis (ECHO MRI, 3–1 Composition Analyzer; Echo Medical Systems, Houston, TX). DIO mice were randomized by body weight and fat mass prior to administration of compounds. Changes in body weight, cumulative food intake, and fat and lean mass were recorded for up to a two week period.
While compound 18 led to significant glucose lowering in an OGTT studies when dosed acutely, it remained unclear if the mechanism of TGR5-stimulated GLP-1 secretion desensitizes over time. […] In order to determine if desensitization occurs, as well as explore the potential for changes in body weight by compound 18, we obtained DIO C57BL/6 mice and randomly assigned them into either an acute or chronic study. For the acute experiment, overnight-fasted DIO mice were dosed with vehicle or 60 mg/kg of compound 18 the next morning, and an OGTT was performed 30 minutes after compound dosing using 2 g/kg glucose. For the chronic study, DIO mice were orally dosed with vehicle or 60 mg/kg compound 18 once a day for two weeks; body weights and food intake were measured during the treatment period. After two weeks, mice were over-night fasted, dosed the following morning, and subjected to an OGTT 30 minutes after compound dosing.
Diet-induced obese (DIO) C57BL/6 mice were either dosed acutely or chronically for two weeks with vehicle (white circles, white bars) or compound 18 at 60 mg/kg (black triangles, black bars). An OGTT on over-night fasted DIO mice was performed after either a single dose (A, acute) or after two weeks of dosing (B, chronic), using 2 g/kg glucose dosed 30 minutes after compound dosing. Changes in body weights (C) and cumulative food intake (D) were recorded for the two week period. n = 8; mean +/- SEM. * P < 0.01.

[6] = test system: C57BL/6 mice; experiment: Acute in vivo incretin secretion assay (plasma GLP-1 and PYY AUC); details: fasted mice, 3-hour time course
Excerpt: Plasma was separated by centrifugation, aliquoted, and analyzed for GLP-1 (X-36) amide (Mesoscale Discovery) and total PYY (Millipore). Resulting raw data was used to generate area under the curve analyses (AUCs).

[7] = 1, 3, 10, 30, 100 mg/kg oral BID 3 days, 30 min after last dose

## CC(=O)N1CCC(C(C)N(C(=O)COc2cccc3sc4nc(C)cn4c23)c2ccc(F)cc2)CC1 (stereo not drawn) [compound 18]
[1]
  GLP-1: no detectable increase
  PYY: no detectable increase
  bile weight: no detectable increase
[2]
  EC50: > 30 µM
[3]; [7]
  bile weight (gallbladder filling): clear dose dependent increase in bile weight
  plasma GLP-1 levels: elevated GLP-1 levels
[3]; oral BID 3 days
  doses with significant effects on GLP-1 secretion: ≥ 30 mg/kg
  doses with significant effects on bile weight: ≥ 3 mg/kg
[4]
  IC50: > 10 µM
[5]
  food intake: no change in food intake
  reduction in body weight gain versus vehicle: 1.4 g
[5]; P = 0.995
  lean mass: no difference in lean mass
[5]; p = 0.067
  gain in fat mass: trend towards reduced gain in fat mass
[6]; 3 mg/kg oral
  GLP-1 AUC increase over vehicle: 1.2 fold over vehicle
  PYY AUC increase over vehicle: 1.1 fold over vehicle
[6]; 10 mg/kg oral
  GLP-1 AUC increase over vehicle: 2.0 fold over vehicle
  PYY AUC increase over vehicle: 1.5 fold over vehicle
[6]; 30 mg/kg oral
  GLP-1 AUC increase over vehicle: 5.7 fold over vehicle
  PYY AUC increase over vehicle: 3.1 fold over vehicle
[6]; 100 mg/kg oral
  GLP-1 AUC increase over vehicle: 12.1 fold over vehicle
  PYY AUC increase over vehicle: 4.9 fold over vehicle
